The results in this text go back to the NIST ThermoML archive (doi:10.1021/je400243j).

In general, viscosity refers to the resistance of a fluid to flow. The mass density is the mass of a sample divided by its volume.

Numbers after ± are expanded uncertainties.

The conditions of the data set: 293.15 K, 101.33 kPa, Liquid; for viscosity: Concentric cylinders viscometry; for mass density: Vibrating tube method.

`CCCCn1cc[n+](CCCS(=O)(=O)O)c1.O=S(=O)([O-])O` [1-butyl-3-(3-sulfopropyl)-imidazolium hydrogensulfate]: the viscosity is recorded as 1000 ± 100 mPa·s and the mass density turned out to be 1346.9 ± 0.8 kg/m3.

Regarding `CCCCn1cc[n+](CCCCS(=O)(=O)O)c1.O=S(=O)([O-])O` [1-butyl-3-(4-sulfobutyl)-imidazolium hydrogensulfate], the viscosity is given as 1592 ± 210 mPa·s and the mass density is on record as 1361.1 ± 0.8 kg/m3.

On to `C[n+]1ccn(CCCS(=O)(=O)O)c1.O=S(=O)([O-])O` [1-methyl-3-(3-sulfopropyl)-imidazolium hydrogensulfate], for which the viscosity is reported as 1296 ± 150 mPa·s and the mass density was 1501.7 ± 0.9 kg/m3.

On to `C[n+]1ccn(CCCCS(=O)(=O)O)c1.O=S(=O)([O-])O` [1-methyl-3-(4-sulfobutyl)-imidazolium hydrogensulfate], for which the viscosity is 1427 ± 180 mPa·s and the mass density was 1464.7 ± 0.8 kg/m3.
